Values joined by “and” are separate entries in the source; they are usually repeats but may differ in a detail not shown here. Identical values can stand only once.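 Cells were grown in 96-well plates and exposed to each compound for 48 hours at five concentrations; endpoints were interpolated linearly between bracketing concentrations, or set to the highest concentration if not reached. GI50: concentration for 50% inhibition of growth. Definition used: TGI = concentration required for complete inhibition of growth.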
Assays:
Assay in all cases: NCI-60 cell line screen, 48 h
HCT-15 colon = system: HCT-15 colon
IGROV1 ovarian = system: IGROV1 ovarian
K-562 leukemia = system: K-562 leukemia
M14 melanoma = system: M14 melanoma
MALME-3M melanoma = system: MALME-3M melanoma
RXF 393 renal = system: RXF 393 renal
SK-MEL-28 melanoma = system: SK-MEL-28 melanoma
ACHN renal = system: ACHN renal
OVCAR-3 ovarian = system: OVCAR-3 ovarian
MDA-MB-231 breast = system: MDA-MB-231 breast

Row | Structure (SMILES) | TGI (HCT-15 colon) | TGI (IGROV1 ovarian) | TGI (K-562 leukemia) | TGI (M14 melanoma) | TGI (MALME-3M melanoma) | TGI (RXF 393 renal) | TGI (SK-MEL-28 melanoma) | TGI (ACHN renal) | TGI (OVCAR-3 ovarian) | GI50 (ACHN renal) | GI50 (HCT-15 colon) | GI50 (IGROV1 ovarian) | GI50 (K-562 leukemia) | GI50 (M14 melanoma) | GI50 (MALME-3M melanoma) | GI50 (MDA-MB-231 breast) | TGI (MDA-MB-231 breast) | GI50 (OVCAR-3 ovarian) | GI50 (SK-MEL-28 melanoma) | GI50 (RXF 393 renal)
1 | CCCCSC1CCSc2c1ccc1ccccc21 (stereo not given) | > 100 µM | > 100 µM | > 100 µM | > 100 µM | 46.9 µM | > 100 µM | > 100 µM | – | – | – | – | – | – | – | – | – | – | – | – | –
2 | CCCC[C@H](CCc1ccccc1)N(C(=O)OC)N1CCC[C@H]1COC | – | 56.8 µM | 61.2 µM | 82.6 µM | 32.1 µM | 32.9 µM | 38 µM | 30.4 µM | 32.3 µM | – | – | – | – | – | – | – | – | – | – | –
3 | COc1cc(/C=C/C(=O)c2ccccc2O)ccc1OCCCOc1cc2c(cc1OC)C(=O)N1CCC[C@H]1C=N2 | 1.05 µM | 0.163 µM | 18.2 µM | 0.172 µM | 0.318 µM | – | 0.109 µM | 0.818 µM | 0.124 µM | 0.071 µM | 0.255 µM | 0.0255 µM | 0.0297 µM | 0.0401 µM | 0.0787 µM | 0.0564 µM | 0.335 µM | 0.0289 µM | 0.0476 µM | –
4 | O=C(N/C(=C\c1cccc([N+](=O)[O-])c1)c1nc2c3c(ccc2[nH]1)C(=O)c1ccccc1C3=O)c1ccccc1 | > 100 µM | – | – | > 100 µM | > 100 µM | – | 85.8 µM | > 100 µM | > 100 µM | – | – | – | – | – | – | – | – | – | – | –
5 | O=C(O)C(Cc1ccccc1)N=Cc1nc(-c2ccccc2)oc1O (stereo not given) | > 100 µM | > 100 µM | > 100 µM | > 100 µM | > 100 µM | > 100 µM | > 100 µM | > 100 µM | > 100 µM | – | – | – | – | – | – | – | – | – | – | –
6 | COC(=O)[C@@H](C)C[C@H](Cc1ccccc1)NC(=O)c1csc([C@@H](C[C@H](C(C)C)N(C)C(=O)[C@@H](NC(=O)[C@H]2CCCCN2C)c2ccc(F)cc2)OC(C)=O)n1 | 25 µM and > 100 µM | 25 µM and > 100 µM | 25 µM and 20.8 µM | – | – | – | > 100 µM | 25 µM and > 100 µM | 0.0157 µM and 0.129 µM | – | – | – | – | – | – | – | – | 0.00309 µM and 0.0103 µM | – | –
7 | CSc1nc2c(nc(N)n2C2OC(CO)C(O)C(O)C2O)c(=O)[nH]1 (stereo not given) | – | > 100 µM | > 100 µM | > 100 µM | > 100 µM | > 100 µM | > 100 µM | > 100 µM | > 100 µM | – | – | – | – | – | – | – | – | – | – | –
8 | Clc1ccc(-c2nnc(-c3nn(-c4ccccc4)c4nc5ccccc5nc34)o2)cc1 | > 100 µM | > 100 µM | > 100 µM | > 100 µM | > 100 µM | > 100 µM | > 100 µM | > 100 µM | > 100 µM | – | – | – | – | – | – | – | – | – | – | –
9 | NCCCNCc1c2ccccc2c(CNCCCN)c2ccccc12 | 54.1 µM | > 100 µM | 32.5 µM | – | 24.2 µM | 35.7 µM | – | > 100 µM | 98.5 µM | – | – | – | – | – | – | – | – | – | – | –
10 | C/C(COc1ccc2oc(-c3ccccc3)cc(=O)c2c1)=N\O | > 100 µM | > 100 µM | > 100 µM | 46.3 µM | – | > 100 µM | > 100 µM | > 100 µM | 54.2 µM | > 100 µM | 7.87 µM | 43.8 µM | 70.7 µM | 15.3 µM | – | 14.1 µM | 36.4 µM | 7.39 µM | 23.1 µM | > 100 µM
11 | Oc1ccc(O)c(-n2cccn2)c1 | > 100 µM | > 100 µM | 64.3 µM | > 100 µM | > 100 µM | > 100 µM | > 100 µM | > 100 µM | – | – | – | – | – | – | – | – | – | – | – | –

— PubChem BioAssay (NCI)
